# Source: patent US20130108562A1, “Cosmetic Composition Containing Oligopeptides” (Cognis IP Management GmbH, priority 2010, published 2013)
# Residues, ends and D or L forms follow the SMILES beside them.
# What was measured:
# collagen type I = experiment: Collagen type I expression by immunocytochemistry in human dermal fibroblasts; format: cell-based
# Procedure: The peptide Acetyl-Val-Leu-Leu-Lys was incubated on human dermal fibroblasts cultured in vitro and the expression of the collagen type I was measured using an immunocytochemistry (ICC) method.
# The human dermal fibroblasts were cultured within growth medium enriched with Foetal Calf Serum (FCS) at 10% and incubated for 2 days at 37° C. Then the growth medium was exchanged for a standard medium containing sodium ascorbyl at 5 μg/ml with FCS at 1% and with or without the Acetyl-Val-Leu-Leu-Lys peptide at 5.1 mg/ml. A positive control condition with sodium ascorbyl at 20 μg/ml was performed. Cells were incubated for 72 hours at 37° C. with the peptide. Cultured human dermal fibroblasts were fixed by acetone for 10 minutes at −20° C. and incubated for 1 hour at room temperature with a primary antibody against collagen type I [Abcam] diluted at 1/250. Fluorescein isothiocyanate (FITC) labelled secondary antibody [CliniSciences, France] was used for revelation. The obtained immuno-staining was observed using a confocal laser scanning microscope [TCS SPE, Leica, France] and quantified by an image analyzer [Quantimet Q5001W, Leica, France]. The staining occupation was evaluated. The results were presented as a mean+/−SEM (Standard Error of Mean) from 6 measures.
# [1] = test system: collagen type XIV gene (COL14A1); experiment: COL14A1 mRNA level by qRT-PCR in human dermal fibroblasts; format: cell-based; conditions: summary of Table 2
# Procedure: The peptide Acetyl-Val-Leu-Leu-Lys was incubated on human dermal fibroblasts cultured in vitro and the expression of the collagen type XIV gene (COL14A1) was measured using a quantitative reverse-transcription and polymerase chain reaction (qRT-PCR) method.
# (§1) The human dermal fibroblasts were cultured within growth medium enriched with FCS at 10% and incubated for 1 day at 37° C. Then the growth medium was exchanged for a standard medium without FCS but with or without the Acetyl-Val-Leu-Leu-Lys peptide at 1.0 μg/ml. Cells were then incubated for 24 hours, 48 hours or 72 hours at 37° C. before extraction of total RNA. The level of COL14A1 mRNAs in the different conditions was evaluated comparatively to the level of EEF1A1 mRNA as housekeeping gene (qRT-PCR method) for each condition.
# The results were calculated through the level of COL14A1 mRNA measured in the control condition (without peptide treatment) for the different incubation times as 100% and presented as a mean+/−SEM from 3 or 5 assays in duplicate.
# tropoelastin gene (ELN) = experiment: ELN mRNA level by qRT-PCR in human dermal fibroblasts; format: cell-based; conditions: summary of Table 3
# Procedure: The peptide Acetyl-Val-Leu-Leu-Lys was incubated on human dermal fibroblasts cultured in vitro and the expression of the tropoelastin gene (ELN) was measured using a qRT-PCR method.
# as §1, with “were” for “were then”, “ELN” for “COL14A1”, “EEF1A 1” for “EEF1A1”, “condition. The results were calculated through the level of ELN mRNA measured in the control condition (without peptide treatment) as 100% and presented as a mean+/−SEM from 3 assays in duplicate.” for “condition.”
# [2] = test system: glutaredoxin-2 gene (GLRX2); experiment: GLRX2 mRNA level by qRT-PCR in human dermal fibroblasts; format: cell-based; conditions: summary of Table 4
# Procedure: The peptide Acetyl-Val-Leu-Leu-Lys was incubated on human dermal fibroblasts cultured in vitro and the expression of the glutaredoxin-2 gene (GLRX2), involved in cellular anti-oxidative defenses) was measured using a qRT-PCR method.
# as §1, with “FCS” for “FCS but”, “were” for “were then”, “6” for “24 hours, 48 hours or 72”, “GLRX2” for “COL14A1”, “mRNAs” for “mRNAs in the different conditions”, “HPRT1 (hypoxanthine phosphoribosyltransferase I)” for “EEF1A1”
# The results were calculated through the level of GLRX2 mRNA measured in the control condition (without peptide treatment) as 100% and presented as a mean+/−SEM from 3 assays in duplicated.
# [3] = test system: epithelial cells from rabbit cornea; conditions: Hara et al., Exp Eye Res, 2001; cited from earlier work
# injured rabbit cornea = conditions: Hara et al., Exp Eye Res, 2001; cited from earlier work
compound,measurement,setting,value
"CC(=O)N[C@H](C(=O)N[C@@H](CC(C)C)C(=O)N[C@@H](CC(C)C)C(=O)N[C@@H](CCCCN)C(=O)O)C(C)C [Acetyl-Val-Leu-Leu-Lys, N-Acetyl-Val-Leu-Leu-Lys-OH] (Ac-VLLK-OH)",effect on level of collagen type I (in words),collagen type I; summary of Table 1,significantly increased the level of collagen type I
same,effect on level of COL14A1 gene expression (in words),[1],specifically and significantly increased the level of COL14A1 gene expression
same,effect on level of ELN gene expression (in words),tropoelastin gene (ELN),specifically and significantly increased the level of ELN gene expression
same,effect on level of GLRX2 gene expression (in words),[2],specifically increased the level of GLRX2 gene expression
Val-Leu-Leu-His (VLLH; printed: Val-Leu-Leu-His),proliferation of epithelial cells from rabbit cornea (in words),[3],stimulate proliferation of epithelial cells from rabbit cornea
same,wound healing activity on injured rabbit cornea (in words),injured rabbit cornea,significant wound healing activity on injured rabbit cornea
sodium ascorbyl [reference compound],% of staining occupation (collagen type I immuno-staining),"collagen type I; positive control at 20 μg/ml, 72 hours, human dermal fibroblasts, mean +/− SEM from 6 measures, control 10.68 +/− 1",18.01 +/− 1.07 (**) %
